Patent EP3064205A1, “Therapeutic use of isomeric forms of 2-(4-chlorophenyl)quinolin-4-yl)(piperidin-2-yl)methanol” (Glionova AB, priority 2015, dated 2016)
Like-named read-outs stand apart in the source and are kept apart here.

Legend:
Experiment in all cases: 3D clonogenic assay (PDX)
Assay type in all cases: cell-based, human
[1] = tested on: OVXF 1023; conditions: OVXF 1023, Ovarian; for IC50: Homo sapiens, OVXF1023
Protocol: (§1) The anti-tumor efficacy of S1 in the patient-derived tumor xenograft (PDX) tumor panel was assessed, where the efficacy of S1 in PDX tumor panel in the 96-well format, in 10 concentrations in duplicate was performed. Colony formation of tumor cell suspensions in a soft-agar matrix was observed and quantified. The output is IC50 values and dose response-relationships based on number of colonies in control and treatment wells, as identified by an automated image analysis algorithm. Stock solution of S1 was prepared in 100% DMSO at 10 mM concentration (stored at -20°C) and reused for each experiment. Compound final test concentrations: Dilution series ½ i.e.: 50µM, 15, 5, 1.5, 0.5, 0.15, 0.05, 0.015, 0.005 and 0.0015.
(§2) Tumor xenografts (also referred to as patient-derived tumor xenografts) were passaged as subcutaneous xenografts in NMRI nu/nu mice. Tumor xenograft were removed from mice under sterile conditions, mechanically disaggregated and subsequently incubated with an enzyme cocktail consisting of collagenase type IV (41 U/mL), DNase I (125 U/mL), hyaluronidase type III (100 U/mL) and dispase II (1.0 U/mL) in RPMI 1640 medium at 37°C for 60 - 120 minutes. Cells were passed through sieves of 100 µm and 40 µm mesh size and washed with RPMI 1640 medium. The percentage of viable cells was determined in a Neubauer-hemocytometer using trypan blue exclusion. Aliquots of the cells were frozen down, and stored in liquid nitrogen.
(§3) The clonogenic assay test was carried out in 96 well plate format. For each test a frozen aliquot of tumor cells prepared from tumor xenografts was thawed and assay plates were prepared as follows: each test well contained 3 layers of equal volume, 2 layers of semi-solid medium (bottom and top layer), and one layer of medium supernatant, with or without test compound. The bottom layer consisted of 0.05 mL/well Iscove's Modified Dulbecco's Medium (Invitrogen), supplemented with 20% (v/v) fetal calf serum (Sigma), 0.01% (w/v) gentamicin (Invitrogen) and 0.75% (w/v) agar (BD Biosciences). Tumor cells were added to 0.05 mL of the same culture medium supplemented with 0.4% (w/v) agar and plated onto the bottom layer. After 24 h, test compounds were added after serial dilution in DMSO and transfer in cell culture medium, and left on the cells for the duration of the experiment (continuous exposure, 0.05 mL drug overlay). Every dish included six untreated control wells and drug-treated groups in duplicate at 10 concentrations. Cultures were incubated at 37 °C and 7.5% CO2 in a humidified atmosphere for 8 to 13 days and monitored closely for colony growth using an inverted microscope. Within this period, ex vivo tumor growth lead to the formation of colonies with a diameter of >50 µm. At the time of maximum colony formation, counts were performed with an automatic image analysis system. 24 h prior to evaluation, vital colonies were stained with a sterile aqueous solution of 2-(4-iodophenyl)-3-(4-nitrophenyl)-5-phenyltetrazolium chloride (1 mg/mL, 100 µL/well). Sigmoidal concentration-response curves were fitted to the data points obtained for each tumor model using 4 parameter non-linear curve fit (Oncotest Warehouse Software). IC50 values are reported as relative IC50 values, being the concentration of test compound that give a response (inhibition of colony formation/viability) half way between the top and bottom plateau of the sigmoidal concentration-response curve (inflection point of the curve), or as absolute IC50 values, being the concentration of test compound at the intersection of the concentration-response curves with T/C = 50%. For calculation of mean IC50 values the geometric mean was used. Results are presented as mean graph plots or heat maps (individual IC50 values relative to the geometric mean IC50 value) over all cell lines as tested.

[2] = tested on: LXFL 430; conditions: LXFL 430, Lung Large Cell; for IC50: Homo sapiens
Protocol: as §1, §2, §3

[3] = tested on: HNXF 908; conditions: HNXF 908, Head and Neck; for IC50: Homo sapiens
Protocol: as §1, §2, §3

[4] = tested on: LXFA 1647; conditions: LXFA 1647, Lung Adeno; for IC50: Homo sapiens
Protocol: as §1, §2, §3

[5] = tested on: CXF 742; conditions: CXF 742, Colorectal; for IC50: Homo sapiens
Protocol: as §1, §2, §3

[6] = tested on: LXFL 1121; conditions: LXFL 1121, Lung Large Cell; for IC50: Homo sapiens
Protocol: as §1, §2, §3

[7] = tested on: CXF 1297; conditions: CXF 1297, Colorectal; for IC50: Homo sapiens
Protocol: as §1, §2, §3

[8] = tested on: MEXF 1765; conditions: MEXF 1765, Melanoma; for IC50: Homo sapiens
Protocol: as §1, §2, §3

[9] = tested on: SXFS 627; conditions: SXFS 627, Sarcoma Soft Tissue; for IC50: Homo sapiens
Protocol: as §1, §2, §3

[10] = tested on: GXF 214; conditions: GXF 214, Gastric; for IC50: Homo sapiens
Protocol: as §1, §2, §3

[11] = tested on: RXF 616; conditions: RXF 616, Renal; for IC50: Homo sapiens
Protocol: as §1, §2, §3

[12] = tested on: RXF 486; conditions: RXF 486, Renal; for IC50: Homo sapiens
Protocol: as §1, §2, §3

Q: With `O[C@H](c1cc(-c2ccc(Cl)cc2)nc2ccccc12)[C@@H]1CCCCN1` [S1, (R)-(2-(4-chlorophenyl)quinolin-4-yl)((S)-piperidin-2-yl)methanol] as the compound, how does the IC50 ([1]; read-out: abs. IC50) read?
A: 7.49 µM

Q: And the IC50 ([1]; read-out: rel. IC50)?
A: 6.84 µM

Q: What about the “b (bottom plateau of concentration-effect curve)” value [1] of the same compound?
A: 11

Q: And the “t (top plateau of concentration-effect curve)” value [1]?
A: 100

Q: And the IC50 ([2]; read-out: abs. IC50)?
A: 9.06 µM

Q: What about the IC50 ([2]; read-out: rel. IC50) of the same compound?
A: 8.98 µM

Q: And the “b (bottom plateau of concentration-effect curve)” value [2]?
A: 14

Q: And the “t (top plateau of concentration-effect curve)” value [2]?
A: 99

Q: What about the “b (bottom plateau of concentration-effect curve)” value [3] of the same compound?
A: 17

Q: And the “t (top plateau of concentration-effect curve)” value [3]?
A: 90

Q: And the IC50 ([3]; read-out: abs. IC50)?
A: 5.19 µM

Q: And the IC50 ([3]; read-out: rel. IC50)?
A: 5.12 µM

Q: And the IC50 ([4]; read-out: abs. IC50)?
A: 12.1 µM

Q: What about the IC50 ([4]; read-out: rel. IC50) of the same compound?
A: 11.9 µM

Q: And the “b (bottom plateau of concentration-effect curve)” value [4]?
A: 13

Q: What about the “t (top plateau of concentration-effect curve)” value [4] of the same compound?
A: 98

Q: And the “b (bottom plateau of concentration-effect curve)” value [5]?
A: 0

Q: And the “t (top plateau of concentration-effect curve)” value [5]?
A: 100

Q: What about the IC50 ([5]; read-out: abs. IC50) of the same compound?
A: 41.3 µM

Q: What about the IC50 ([5]; read-out: rel. IC50) of the same compound?
A: 41.3 µM

Q: What about the IC50 ([6]; read-out: abs. IC50) of the same compound?
A: 8.66 µM

Q: And the IC50 ([6]; read-out: rel. IC50)?
A: 8.61 µM

Q: What about the “b (bottom plateau of concentration-effect curve)” value [6] of the same compound?
A: 9

Q: And the “t (top plateau of concentration-effect curve)” value [6]?
A: 101

Q: And the “b (bottom plateau of concentration-effect curve)” value [7]?
A: 15

Q: What about the “t (top plateau of concentration-effect curve)” value [7] of the same compound?
A: 90

Q: And the IC50 ([7]; read-out: abs. IC50)?
A: 6.42 µM

Q: And the IC50 ([7]; read-out: rel. IC50)?
A: 6.37 µM

Q: And the IC50 ([8]; read-out: abs. IC50)?
A: 8.58 µM

Q: And the IC50 ([8]; read-out: rel. IC50)?
A: 8.53 µM

Q: What about the “b (bottom plateau of concentration-effect curve)” value [8] of the same compound?
A: 23

Q: And the “t (top plateau of concentration-effect curve)” value [8]?
A: 84

Q: What about the IC50 ([9]; read-out: abs. IC50) of the same compound?
A: 5.84 µM

Q: And the IC50 ([9]; read-out: rel. IC50)?
A: 5.74 µM

Q: What about the “b (bottom plateau of concentration-effect curve)” value [9] of the same compound?
A: 7

Q: What about the “t (top plateau of concentration-effect curve)” value [9] of the same compound?
A: 96

Q: And the “b (bottom plateau of concentration-effect curve)” value [10]?
A: 6

Q: And the “t (top plateau of concentration-effect curve)” value [10]?
A: 99

Q: And the IC50 ([10]; read-out: abs. IC50)?
A: 4.92 µM

Q: And the IC50 ([10]; read-out: rel. IC50)?
A: 4.89 µM

Q: And the IC50 ([11]; read-out: abs. IC50)?
A: 8.81 µM

Q: And the IC50 ([11]; read-out: rel. IC50)?
A: 8.77 µM

Q: And the “b (bottom plateau of concentration-effect curve)” value [11]?
A: 17

Q: And the “t (top plateau of concentration-effect curve)” value [11]?
A: 89

Q: And the IC50 ([12]; read-out: abs. IC50)?
A: 12.8 µM

Q: And the IC50 ([12]; read-out: rel. IC50)?
A: 12.7 µM

Q: And the “b (bottom plateau of concentration-effect curve)” value [12]?
A: 5

Q: And the “t (top plateau of concentration-effect curve)” value [12]?
A: 97
